27 compounds from patent US12435062B2, “Amide compounds and uses thereof” (HUTCHISON MEDIPHARMA LIMITED, priority 2020, dated 2025) can be followed below.

The target in test [1] is Recombinant human CSF1R kinase (Homo sapiens (Human), UniProt P07333). The test is classed as biochemical. To be noted: Z-LYTE Tyr 1 peptide substrate.
A further test concerns Ba/F3^BCR-FMS-11 cells. In words: Cell proliferation experiment (Ba/F3^BCR-FMS-11, cckit-8). It is filed as cell-based, mouse. To be noted: Mus musculus, Ba/F3^BCR-FMS-11 cell proliferation. The protocol:
Cell Proliferation Experiment
Ba/F3^BCR-FMS-11, mouse primary B lymphocytes stably expressing the BCR-FMS fusion gene. The cells were cultured in an RPMI 1640 medium containing 10% FBS.
(§1) 2. Reagents and instruments
• cckit-8 kit: Dojindo, 9 CK04; • Envision: Perkin Elmer; • Cell culture plate: Facol, 9353027. 3. Experimental steps
The BCR-FMS fusion gene was transfected into Ba/F3 cells, and the cell line Ba/F3^BCR-FMS-11 that stably expresses BCR-FMS and grows depending on CSF-1R was screened. Ba/F3^BCR-FMS-11 cell proliferation experiments is completed by using the Cell Counting kit cckit-8 in a 96-well plate. In a 96-well plate, 5000/well of Ba/F3^BCR-FMS-11 cells were inoculated at 100 μL/well. […] 10 μL of the compound dilutions with the above 8 concentrations were added to the culture cell wells. The culture was incubated in a 37° C. and 5% CO2 cell incubator for 72 hours. 10 μL of Cell Counting kit cckit-8 detection reagent was added to each well, and incubated at 37° C. and 5% CO2 in a cell incubator for another 1 h. The optical density absorption value at 450 nm of each well was detected by using Perkin Elmer Envision instrument.
wherein • Drug-treated well read-out: indicating the optical density signal of a cell well with the test compound treatment. • Cell well read-out: indicating the optical density signal of a cell well not treated with the test compound (only 0.5% DMSO). • Background read-out: indicating the optical density signal of a well with the cell medium. 5. Calculation of IC50: obtained by using XL-Fit 5.3 software. 6. Test results

For test [2], the target named is CSF1R phosphorylation in THP-1 cells (Homo sapiens (Human), UniProt P07333). The test can be described thus: Detection of CSF1R phosphorylation activity at cell level (THP-1, M-CSF stimulated, ELISA). The test is classed as cell-based. To be noted: p-CSF1R ELISA, compound 60 min, 300 ng/mL M-CSF 1 min. The procedure:
Detection of CSF1R Phosphorylation Activity at Cell Level
THP-1 (ATCC), human acute monocytic leukemia cells. The cells were cultured in an RPMI 1640 medium containing 10% FBS.
as §1
• Human phosphorylation-CSF1R ELISA kit: R&D, #DYC3268-2; • RPMI 1640 culture solution: GIBCO, 910491; • Human M-CSF recombinant cytokine: R&D, 9216-MC-500; • Cell lysis buffer: Cell Signal, 99803S; • 1×PBS buffer (1 L): 8.0 g of NaCl, 0.2 g of KCl, 3.58 g of Na2HPO4-12H2O, 0.24 g of KH2PO4 were dissolved in 1 L of dd H2O, and the pH was adjusted to 7.4; • Blocking solution: PBS buffer containing 1% BSA; • PBST washing liquid: PBS buffer containing 0.05% Tween-20; • Chromogenic substrate: R&D, #DY999; • 2N H2SO4; • Microwell plate reader: Labsystems Multiskan K3: Thermo; Envision: Perkin Elmer; • ELISA plate: Corning, #9018; • Cell culture plate: Facol, #353027. 3. Treatment of cells and preparation of lysis buffer
THP-1 cells were resuspended in RPMI-1640 culture solution containing 2% FBS, and the culture was added to a 96-well plate at a density of 5×10^4/well, 50 μL/well, and cultured in a cell incubator at 5% CO2 and 37° C. overnight; The test compound was diluted with a serum-free RPMI-1640 medium to 3, 1.1, 0.37, 0.12, 0.04, 0.014, 0.005 and 0.002 μM, and the concentration of DMSO was 5%. 5 μL of the diluted compound was added to the 50 μL cell culture system, the culture was cultured in a 5% CO2, 37° C. cell incubator for 60 min, 300 ng/mL of M-CSF was added to the cells, and the mixture was stimulated in the 37° C. cell incubator for 1 min, added 50 μL of cell lysis buffer, and stored in a refrigerator at −80° C.
100 μL/well of the p-CSF1R capture antibody diluted to 0.8 μg/mL with PBS was added to the ELISA plate, and the plate was coated on a shaker at room temperature overnight. The culture was washed with PBST, and then added blocking solution and incubated at room temperature for 2 h. The culture was washed with PBST, added 90 μL of cell lysis buffer, and incubated on a shaker at 25° C. for 2 h. The plate was washed with PBST three times, added 100 μL of anti-p-tyrosine-HRP detection antibody diluted with 0.1% PBS-BSA diluent, and incubated on a shaker at 25° C. for 2 h. The plate was washed with PBST washing liquid, added 100 μL of chromogenic substrate and incubated at room temperature for 10-20 min. The reaction was stopped by adding 50 μL of 2N H2SO4. The optical density signal (450/570 nm) of each well was detected in Labsystems Multiskan K3 or Envision.
wherein • Drug-treated well read-out: indicating the optical density signal of a cell well with the test compound treatment. • Background read-out: indicating the optical density signal of a well without cells but with cell lysis buffer. • Cell well read-out: indicating the optical density signal of a cell well not treated with the compound. 6. Calculation of IC50: obtained by using XL-Fit 5.3 software. 7. Test results
In general terms: An ELISA detects its analyte on a solid surface through an enzyme-linked reagent.

Sequence of Recombinant human CSF1R kinase (P07333 20-972): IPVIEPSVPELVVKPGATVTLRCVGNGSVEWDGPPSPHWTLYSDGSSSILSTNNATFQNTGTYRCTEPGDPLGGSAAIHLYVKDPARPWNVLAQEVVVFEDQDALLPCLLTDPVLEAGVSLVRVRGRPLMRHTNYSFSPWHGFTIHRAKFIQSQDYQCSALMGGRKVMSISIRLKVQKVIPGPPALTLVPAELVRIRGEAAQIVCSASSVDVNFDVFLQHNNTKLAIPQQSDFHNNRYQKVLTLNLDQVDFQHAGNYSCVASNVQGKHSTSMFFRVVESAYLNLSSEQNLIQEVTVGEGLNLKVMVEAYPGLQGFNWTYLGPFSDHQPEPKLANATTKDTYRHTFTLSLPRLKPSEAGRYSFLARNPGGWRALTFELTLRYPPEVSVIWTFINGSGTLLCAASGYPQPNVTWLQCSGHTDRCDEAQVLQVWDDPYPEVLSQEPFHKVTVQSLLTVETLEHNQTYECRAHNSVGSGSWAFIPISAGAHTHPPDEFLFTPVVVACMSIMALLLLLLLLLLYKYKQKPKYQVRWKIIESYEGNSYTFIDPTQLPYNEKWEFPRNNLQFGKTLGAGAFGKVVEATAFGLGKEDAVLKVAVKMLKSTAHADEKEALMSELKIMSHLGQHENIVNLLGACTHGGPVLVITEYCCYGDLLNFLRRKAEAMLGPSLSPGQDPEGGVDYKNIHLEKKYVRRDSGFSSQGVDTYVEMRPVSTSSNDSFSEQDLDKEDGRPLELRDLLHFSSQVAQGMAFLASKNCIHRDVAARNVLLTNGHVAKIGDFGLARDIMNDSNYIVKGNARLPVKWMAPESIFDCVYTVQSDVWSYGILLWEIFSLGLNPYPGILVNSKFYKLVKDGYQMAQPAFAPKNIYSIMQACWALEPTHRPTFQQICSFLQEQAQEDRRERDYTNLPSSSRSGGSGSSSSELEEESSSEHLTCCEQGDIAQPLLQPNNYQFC
Sequence of CSF1R phosphorylation in THP-1 cells (P07333 20-972): as above

In general, IC50 refers to the concentration at which inhibition is half-maximal. For `CC(C)n1c(N(C)C)ccc(C(=O)Nc2ccc(Oc3ccnc(-c4cnn(C)c4)c3)cn2)c1=O` [Compound 1, 6-(dimethylamino)-1-isopropyl-N-(5-((2-(1-methyl-1H-pyrazol-4-yl)pyridin-4-yl)oxy)pyridin-2-yl)-2-oxo-1,2-dihydropyridine-3-carboxamide], in test [1], the IC50 is 217 nM.
For `CN(C)c1ccc(C(=O)Nc2ccc(Oc3ccnc(-c4cnn(C)c4)c3)cn2)c(=O)n1C` [Compound 2, 6-(dimethylamino)-1-methyl-N-(5-((2-(1-methyl-1H-pyrazol-4-yl)pyridin-4-yl)oxy)pyridin-2-yl)-2-oxo-1,2-dihydropyridine-3-carboxamide], in the test on Ba/F3^BCR-FMS-11 cells (72 hours), the half-maximal inhibitory concentration (IC50) stood at 11 nM.
`COc1ccc(C(=O)Nc2ccc(Oc3ccnc(-c4cnn(C)c4)c3)cn2)c(=O)n1C` [Compound 3, 6-methoxy-1-methyl-N-(5-((2-(1-methyl-1H-pyrazol-4-yl)pyridin-4-yl)oxy)pyridin-2-yl)-2-oxo-1,2-dihydropyridine-3-carboxamide]: the IC50 amounted to 5 nM in test [1], 63 nM in test [2] and 12 nM in the test on Ba/F3^BCR-FMS-11 cells (72 h).
`Cn1cc(Nc2cc(Oc3cnc(NC(=O)c4cccn(C)c4=O)c(F)c3)ccn2)cn1` [Compound 4, N-(3-fluoro-5-((2-((1-methyl-1H-pyrazol-4-yl)amino)pyridin-4-yl)oxy)pyridin-2-yl)-1-methyl-2-oxo-1,2-dihydropyridine-3-carboxamide]: the values for the IC50 (in test [1]; in test [2]; in the test on Ba/F3^BCR-FMS-11 cells (72 h)) were 66 nM, 28 nM and 60 nM, respectively.
For `Cc1ncc(C(=O)Nc2ccc(Oc3cc(-c4cnn(C)c4)ncn3)cn2)c(=O)n1C` [Compound 5, 1,2-dimethyl-N-(5-((6-(1-methyl-1H-pyrazol-4-yl)pyrimidin-4-yl)oxy)pyridin-2-yl)-6-oxo-1,6-dihydropyrimidine-5-carboxamide], in that order: 22 nM, 11 nM and 47 nM.
For the compound `Cc1ncc(C(=O)Nc2ccc(Oc3ccnc(-c4cnn(CCN(C)C)c4)c3)cn2)c(=O)n1C` [Compound 14], the IC50 with Ba/F3^BCR-FMS-11 cells (72 h) came out at 44 nM.
On to `Cc1cc(Oc2ccnc(-c3cnn(C)c3)c2)ccc1NC(=O)c1cccn(C(C)C)c1=O` [Compound 19], for which, in test [1], the IC50 came to 274 nM.
Take `Cn1cc(-c2cc(Oc3ccc(NC(=O)c4cnc5ccccn5c4=O)nc3)ccn2)cn1` [Compound 26]: the IC50 in the test with Ba/F3^BCR-FMS-11 cells (72 h) was 10 nM.
With `Cn1cccc(C(=O)Nc2ccc(Oc3ccnc(-n4cncn4)c3)cn2)c1=O` [Compound 29], the IC50 in test [1] was 173 nM.
As for `Cc1ncc(C(=O)Nc2ccc(Oc3ccnc(-c4cncn4C)c3)cn2)c(=O)n1C` [Compound 31], the 50% inhibitory concentration (IC50) in test [1] was 689 nM.
Consider `Cc1cc(Nc2cc(Oc3ccc(NC(=O)c4cnc(C)n(C)c4=O)nc3)ccn2)ccn1` [Compound 35], for which the half-maximal inhibitory concentration (IC50) in test [1] came to 113 nM.
For `Cn1cccc(C(=O)Nc2ccc(Oc3ccnc(-n4cccn4)c3)cn2)c1=O` [Compound 37], in test [1], the IC50 turned out to be 169 nM.
As to `Cn1cc(-c2cc(Oc3ccc(NC(=O)c4cn(C)c(=O)n(C)c4=O)nc3)ccn2)cn1` [Compound 40], the IC50 in the test on Ba/F3^BCR-FMS-11 cells (72 h) came out at 46 nM.
In the case of `COc1cc(Oc2ccnc(-c3cnn(C)c3)c2)ccc1NC(=O)c1cnc(C)n(C)c1=O` [Compound 53], the IC50 in test [1] is 135 nM.
Regarding `CC(C)n1ccnc(C(=O)Nc2ccc(Oc3ccnc(-c4cnn(C)c4)c3)cn2)c1=O` [Compound 59], in test [1], the IC50 came to 121 nM.
Turning to `Cn1cc(-c2cc(Oc3ccc(NC(=O)c4cnc(C5CC5)n(C)c4=O)nc3)ccn2)cn1` [Compound 74], the 50% inhibitory concentration (IC50) in the test with Ba/F3^BCR-FMS-11 cells (72 h) came to 12 nM.
`Cn1cc(-c2cc(Oc3ccc(NC(=O)c4cccn(CC(F)(F)F)c4=O)nc3)ccn2)cn1` [Compound 87] yielded a half-maximal inhibitory concentration (IC50) in the test on Ba/F3^BCR-FMS-11 cells (72 h) of 6 nM.
On to `COc1cc(Oc2ccnc(-c3cnn(C)c3)c2)cnc1NC(=O)c1cccn(C(C)C)c1=O` [Compound 92, 1-isopropyl-N-(3-methoxy-5-((2-(1-methyl-1H-pyrazol-4-yl)pyridin-4-yl)oxy)pyridin-2-yl)-2-oxo-1,2-dihydropyridine-3-carboxamide], for which the IC50 with Ba/F3^BCR-FMS-11 cells (72 h) was 567 nM.
In the case of `Cn1cccc(C(=O)Nc2ccc(Oc3ccnc(-c4cnn(CCO)c4)c3)cn2)c1=O` [Compound 94, N-(5-((2-(1-(2-hydroxyethyl)-1H-pyrazol-4-yl)pyridin-4-yl)oxy)pyridin-2-yl)-1-methyl-2-oxo-1,2-dihydropyridine-3-carboxamide], in the test on Ba/F3^BCR-FMS-11 cells (72 h), the IC50 is 142 nM.
Consider `CCN1CCN(c2cc(Oc3ccc(NC(=O)c4cccn(C(C)C)c4=O)nc3)ccn2)CC1` [Compound 98, N-(5-((2-(4-ethylpiperazin-1-yl)pyridin-4-yl)oxy)pyridin-2-yl)-1-isopropyl-2-oxo-1,2-dihydropyridine-3-carboxamide], for which the IC50 in test [1] was 484 nM.
On the same count and under the same terms, the value for `Cc1ncc(C(=O)Nc2ccc(Oc3ccnc(-c4cnn(CCN)c4)c3)cn2)c(=O)n1C` [Compound 109, N-(5-((2-(1-(2-aminoethyl)-1H-pyrazol-4-yl)pyridin-4-yl)oxy)pyridin-2-yl)-1,2-dimethyl-6-oxo-1,6-dihydropyrimidine-5-carboxamide] was 177 nM; that for `CNCCn1cc(-c2cc(Oc3ccc(NC(=O)c4cnc(C)n(C)c4=O)nc3)ccn2)cn1` [Compound 110] was 111 nM; that for `Cc1ncc(C(=O)Nc2ccc(Oc3ccnc(-c4nccs4)c3)cn2)c(=O)n1C` [Compound 119] was 467 nM.
As to `Cc1ncc(C(=O)Nc2ccc(Oc3ccnc(C4=CCCCC4)c3)cn2)c(=O)n1C` [Compound 121], the IC50 in test [1] is 413 nM.
As to `Cc1ccc(-c2cc(Oc3ccc(NC(=O)c4cnc(C)n(C)c4=O)nc3)ccn2)o1` [Compound 122], the IC50 in test [1] was determined as 55 nM.
As to `Cn1cc(-c2cc(Oc3ccc(NC(=O)c4cnc(O)n(C)c4=O)nc3)ccn2)cn1` [Compound 134, 2-hydroxy-1-methyl-N-(5-((2-(1-methyl-1H-pyrazol-4-yl)pyridin-4-yl)oxy)pyridin-2-yl)-6-oxo-1,6-dihydropyrimidine-5-carboxamide], the IC50 in the test with Ba/F3^BCR-FMS-11 cells (72 h) came out at 526 nM.
On to `Cc1ncc(C(=O)Nc2ccc(Oc3ccnc(-c4cn(C)nc4O)c3)cn2)c(=O)n1C` [Compound 135, N-(5-((2-(3-hydroxy-1-methyl-1H-pyrazol-4-yl)pyridin-4-yl)oxy)pyridin-2-yl)-1,2-dimethyl-6-oxo-1,6-dihydropyrimidine-5-carboxamide], for which the IC50 in test [1] was 12 nM; in the test on Ba/F3^BCR-FMS-11 cells (72 h) it was 7 nM.
